# Laboratory results reported in patent publication US9572821B2, “Pharmaceutical compositions for preventing and treating eye pathologies” (MITOTECH SA, priority 2006, dated 2017).
# Assays:
# Assay type in all cases: in vivo, rat
# [1] = system: cataract in OXYS rats; assay: Prophylactic effect on cataract (lens changes), ophthalmoscopic examination of OXYS rats; conditions: for 2nd stage of cataract: KBr: % of total number of eyes, vitamin E: % of changes; for lens changes observed/registered (cataract morbidity): after oral course from 1.5 to 3 months, % of eyes/cases; for lens changes observed/registered (cataract morbidity) / cataract newly affected/added during the course (20% of eyes already affected at 1.5 months): SkQ1 or KBr 50 nmol per kg
# Procedure: (§1) The study was carried out using OXYS and Wistar male rats. The animals were housed in cages (five rats per a cage) and kept under standard laboratory conditions (at 22±1° C., 60% relative humidity, and natural light), provided with a standard rodent diet (PK-120-1, Ltd. ‘Laboratorsnab’, Russia), and given water ad libitum. At the age of 1.5 months after preliminary pupil dilation with 1% tropicamide ophthalmic the rats were examined by ophthalmologist. During the period from 1.5 to 3 months, which is critical for the development of pronounced changes in eye organ of OXYS rats, the animals were given either SkQ1 (50 nmol per kg of body weight), or KBr (50 nmol per kg of body weight) or vitamin E (alfa-tocopherol acetate, 20 mg per kg). We use Vitamin E for a comparison with test antioxidants. Animals received the compounds on a small piece of dried bread before a regular meal, and the control group of animals received the same piece of bread without any compound. After completing the course of antioxidants the animals were weighed and retested with ophthalmoscope. To avoid human factor in the evaluation of compound effects, the researcher who conducted the ophthalmoscopic examination was not told which of the animals received antioxidants.
# (§2) The ophthalmoscopic examination was carried out using direct ophthalmoscope “Betta”, Germany. In selected animals under fluorotane narcosis (1-1.5 minutes) eyeground was photographed, fluorescent angiography with the use of “Opton” fundus-camera was conducted or crystalline lenses were examined by means of slitlamp “Opton SL30” using system of automatic image registration (biomicroscopic research).
# (§3) The lens state was evaluated according to the classification system accepted in clinical practice (L. A. Katsnelson, T. I. Forofonova, A. Ya. Bunin, 1990) with grades ranging from 0 to 3: score 0—the lens is clear; score 1—spotted weak cloudiness; score 2—multiple spots of cloudiness and score 3—intense cloudiness of the lens core and nucleus. The presence and the degree of spotted changes in macular area were evaluated according to accepted classification: score 0—no changes; score 1—the 1st stage of pathology, when small yellow deposits, known as “drusen” appear underneath the macula; score 2—2nd stage, the development of prominent yellow spot with sharp edges with the size of 0.5 to 1 of the disk diameter (exudative detachment of pigment retinal epithelium); and score 3—3rd stage with extensive hemorrhage into macular area.
# (§4) Statistical processing of the results was carried out using the factorial dispersive analysis (ANOVA/MANOVA, Statistica, 5) with post hoc comparison of group average (Newman-Keul test) considering genotype and preparation as independent factors.
# [2] = system: macular dystrophy in OXYS rats; assay: Prophylactic effect on macular dystrophy (changes in macular area of retina), ophthalmoscopic examination of OXYS rats; conditions: for 2nd stage of macular degeneration: KBr: % of these changes; for changes in the macular area of the retina (macular dystrophy morbidity): after oral course from 1.5 to 3 months, % of eyes/cases; for changes in the macular area of the retina (macular dystrophy morbidity) / macular dystrophy newly affected during the course (10% already affected at 1.5 months): SkQ1 or KBr 50 nmol per kg
# Procedure: as §1, §2, §3, §4
# [3] = system: cataract in OXYS rats; assay: Therapeutic effect on state of crystalline lenses, OXYS rats aged 10.5 months; conditions: for pathological changes of lenses, before vs after the therapy course: 10.5 to 12 months, pair comparisons / comparison of average values; for Changes of lenses, grades (score): examination after therapy course at the age of 12 months, 50 nmol per kg of body weight, score 0-3
# Procedure: as §1, with “[…],” for “During the period from 1.5 to 3 months,”
# as §2, §3, §4
# [4] = system: macular dystrophy (retinopathy) in OXYS rats; assay: Therapeutic effect on macular area of retina, OXYS rats aged 10.5 months; conditions: for pathological changes of retina, before vs after the therapy course / Changes of macular area of retina, grades (score): OXYS rats; for pathological changes of retina, before vs after the therapy course: 10.5 to 12 months, pair comparisons / comparison of average values; for Changes of macular area of retina, grades (score): examination after therapy course at the age of 12 months, 50 nmol per kg of body weight, score 0-3
# Procedure: as §1, with “During the period from 1.5 to 3 months, which is critical for the development of pronounced changes in eye organ of OXYS rats, the animals were given either SkQ1 (50 nmol per kg of body weight), or KBr (50 nmol per kg of body weight) or vitamin E (alfa-tocopherol acetate, 20 mg per kg).” left out
# as §2, §3, §4
# [5] = system: lenses of Wistar rats; assay: Therapeutic experiment, state of crystalline lenses, Wistar rats aged 10.5 months; conditions: examination after therapy course at the age of 12 months, 50 nmol per kg of body weight, score 0-3
# Procedure: The study was carried out using OXYS and Wistar male rats. The animals were housed in cages (five rats per a cage) and kept under standard laboratory conditions (at 22±1° C., 60% relative humidity, and natural light), provided with a standard rodent diet (PK-120-1, Ltd. ‘Laboratorsnab’, Russia), and given water ad libitum. At the age of 1.5 months after preliminary pupil dilation with 1% tropicamide ophthalmic the rats were examined by ophthalmologist. […]
# (§5) The lens state was evaluated according to the classification system accepted in clinical practice (L. A. Katsnelson, T. I. Forofonova, A. Ya. Bunin, 1990) with grades ranging from 0 to 3: score 0—the lens is clear; score 1—spotted weak cloudiness; score 2—multiple spots of cloudiness and score 3—intense cloudiness of the lens core and nucleus. The presence and the degree of spotted changes in macular area were evaluated according to accepted classification: score 0—no changes; score 1—the 1st stage of pathology, when small yellow deposits, known as “drusen” appear underneath the macula; score 2—2nd stage, the development of prominent yellow spot with sharp edges with the size of 0.5 to 1 of the disk diameter (exudative detachment of pigment retinal epithelium); and score 3—3rd stage with extensive hemorrhage into macular area. […]
# [6] = system: retina of Wistar rats; assay: Therapeutic experiment, macular area of retina, Wistar rats aged 10.5 months; conditions: for Changes of macular area of retina, grades (score): Wistar rats, examination after therapy course at the age of 12 months, 50 nmol per kg of body weight, score 0-3
# Procedure: as §1, with “by ophthalmologist. […], which is” for “by ophthalmologist. During the period from 1.5 to 3 months, which is”, “received antioxidants. […]” for “received antioxidants.”
# as §5
# [7] = OXYS rats at 3 months, after course from 1.5 to 3 months
# [8] = OXYS rats at 3 months, vitamin E 20 mg per kg
# [9] = OXYS rats, 1.5 to 3 months, vitamin E 20 mg per kg
# [10] = OXYS rats at 3 months, after course from 1.5 to 3 months, SkQ1 50 nmol per kg
# [11] = OXYS rats, 1.5 to 3 months, SkQ1 50 nmol per kg
# [12] = one month after the end of SkQ1 administration, in contrast to the control group
# [13] = OXYS rats after SkQ1 therapy course
Structure (SMILES),"2nd stage of cataract [1, 7]","lens changes observed/registered (cataract morbidity) [1, 8]","cataract newly affected/added during the course (20% of eyes already affected at 1.5 months) [1, 9]","2nd stage of macular degeneration [2, 7]","changes in the macular area of the retina (macular dystrophy morbidity) [2, 8]","macular dystrophy newly affected during the course (10% already affected at 1.5 months) ([2]; OXYS rats, 1.5 to 3 months)","pathological changes of lenses, before vs after the therapy course [3]","Changes of lenses, grades (score) [3]","pathological changes of retina, before vs after the therapy course [4]","Changes of macular area of retina, grades (score) [4]","Changes of lenses, grades (score) [5]","Changes of macular area of retina, grades (score) [6]",further results
"[Br-].[K+] [KBr, reference compound]",57%,93%,73%,13%,87%,77%,authentically aggravated,1.6 ± 0.23 score,no any changes,1.13 ± 0.17 score,0.5 ± 0.15 score,0.25 ± 0.10 score,
CC1=C(C)C(=O)C(CCCCCCCCCC[P+](c2ccccc2)(c2ccccc2)c2ccccc2)=CC1=O.[Br-] [SkQ1],,46%,26%,,38%,28%,much less pronounced,0.41 ± 0.13 score,much less pronounced,0.32 ± 0.13 score,0.54 ± 0.14 score,0.09 ± 0.06 score,"stage to which the lens changes corresponded [1, 10]: 1st stage of cataract; cataract cases, times less than in the group supplemented with KBr [1, 11]: 2.8 times; effect on cataract progression ([1]; OXYS rats, FIG. 3): essentially affected their progression; changes in the state of crystalline lens after the end of the course [1, 12]: no any changes; stage to which the macular changes corresponded [2, 10]: 1st stage of macular degeneration; macular dystrophy cases, times less than in the control group [2, 11]: 2.8 times; effect on macular dystrophy progression ([2]; OXYS rats, FIG. 4): essentially affected their progression; changes in the state of retina after the end of the course [2, 12]: no any changes; hemorrhages in retina [4, 13]: resolution of hemorrhages; ischemic centers in retina [4, 13]: reduction of quantity and area of ischemic centers; puffiness of retina [4, 13]: significant reduction of puffiness; animals with changes of retina appropriate to even the most initial stage of disease ([6]; Wistar rats supplemented with SkQ1, after 45 days): practically absent"
"CC(=O)Oc1c(C)c(C)c2c(c1C)CCC(C)(CCC[C@H](C)CCC[C@H](C)CCCC(C)C)O2 (some centres unmarked) [vitamin E, alfa-tocopherol acetate]",12%,58%,38%,8%,54%,,,,,,,,"cataract cases, times less than in the control intact group [1, 9]: 1.8 times; macular changes, times less than in the control intact group [2, 9]: 1.5 times"
